Measured values reported in US20230190717A1, “P38 GAMMA INHIBITORS AND METHOD OF USE THEREOF” (City of Hope, priority 2017, published 2023).

Columns and labels:
[1] = target: T1, human recombinant p38 α protein (Homo sapiens, UniProt Q16539); test: ADP-Glo in vitro kinase assay, p38α; format: biochemical
T1 construct: human recombinant p38 α, β, γ or δ protein (active full-length); purchased SignalChem; host or cells: baculovirus in Sf9 insect cells
Experimental: (§1) Kinase assay in vitro: Kinase enzyme assays in vitro were performed using ADP-Glo kit (Promega, Wis.). The luminescent ADP-Glo kinase assay measures ADP produced from ATP consumption in a kinase enzyme reaction. All compounds have been tested and shown no inhibition to luciferase activities. Briefly, in this experiment, human recombinant p38 α, β, γ or δ protein (active full-length) expressed by baculovirus in sf9 insect cells (SignalChem, Vancouver, Canada) was homogenized in wells of white opaque 96-well microplates with the kinase buffer that consisted of 40 mM Tris-HCl (pH 7.5), 20 mM MgCl2, 0.1 mg/mL BSA and 50 μM DTT. […] Next, synthetic peptide substrates ([…]) were added to the mixture at final concentration of 0.2 μg/μL, followed by adding ATP at various concentrations. The 50 μL mixture was reacted at room temperature for 60 min. […]
(§2) In vitro kinase assay (ADP-GLO): We identified p38γ inhibitors using in vitro kinase assay by screening a library of kinase inhibitors: The library consists of 244 compounds on three plates (EMD Cat #539744, #539745, and #539746) that are mostly ATP mimics. […] IC50 values were determined using […] software (Biosoft, Cambridge, United Kingdom).

[2] = target: T2, p38β (Homo sapiens, UniProt Q15759); test: ADP-Glo in vitro kinase assay, p38β; format: biochemical
T2 construct: human recombinant p38 α, β, γ or δ protein (active full-length); purchased SignalChem; host or cells: baculovirus in Sf9 insect cells
Experimental: as §1, §2

[3] = tested on: HH cells; test: HH cell proliferation (cell number); format: cell-based, human; conditions: 100 nM and 300 nM, four days
[4] = target: T3, p38δ (Homo sapiens, UniProt O15264); test: ADP-Glo in vitro kinase assay, p38δ; format: biochemical; design: human recombinant p38 α, β, γ or δ protein (active full-length); purchased SignalChem; host or cells: baculovirus in Sf9 insect cells
T3 sequence (O15264 1-365): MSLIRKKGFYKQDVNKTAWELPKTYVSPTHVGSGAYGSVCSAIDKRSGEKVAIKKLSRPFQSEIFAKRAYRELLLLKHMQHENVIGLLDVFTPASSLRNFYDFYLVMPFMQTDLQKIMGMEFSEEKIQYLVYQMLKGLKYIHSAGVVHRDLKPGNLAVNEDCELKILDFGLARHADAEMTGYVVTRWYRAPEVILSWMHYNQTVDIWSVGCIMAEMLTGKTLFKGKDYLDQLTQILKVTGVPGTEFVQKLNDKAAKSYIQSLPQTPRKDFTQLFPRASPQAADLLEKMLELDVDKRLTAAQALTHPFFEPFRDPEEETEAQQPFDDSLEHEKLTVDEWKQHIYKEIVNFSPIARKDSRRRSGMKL
Experimental: as §1, §2

T2 sequence (Q15759 whole entry): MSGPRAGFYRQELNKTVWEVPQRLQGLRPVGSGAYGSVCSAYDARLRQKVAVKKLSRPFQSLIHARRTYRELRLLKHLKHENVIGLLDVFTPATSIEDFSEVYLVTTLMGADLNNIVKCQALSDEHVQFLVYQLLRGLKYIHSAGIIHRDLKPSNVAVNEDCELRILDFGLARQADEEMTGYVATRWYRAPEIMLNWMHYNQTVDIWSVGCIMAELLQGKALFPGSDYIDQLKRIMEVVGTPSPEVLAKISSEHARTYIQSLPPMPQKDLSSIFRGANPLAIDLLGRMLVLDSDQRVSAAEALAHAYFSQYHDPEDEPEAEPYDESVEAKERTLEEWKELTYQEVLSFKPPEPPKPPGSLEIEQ
T1 sequence (Q16539 whole entry): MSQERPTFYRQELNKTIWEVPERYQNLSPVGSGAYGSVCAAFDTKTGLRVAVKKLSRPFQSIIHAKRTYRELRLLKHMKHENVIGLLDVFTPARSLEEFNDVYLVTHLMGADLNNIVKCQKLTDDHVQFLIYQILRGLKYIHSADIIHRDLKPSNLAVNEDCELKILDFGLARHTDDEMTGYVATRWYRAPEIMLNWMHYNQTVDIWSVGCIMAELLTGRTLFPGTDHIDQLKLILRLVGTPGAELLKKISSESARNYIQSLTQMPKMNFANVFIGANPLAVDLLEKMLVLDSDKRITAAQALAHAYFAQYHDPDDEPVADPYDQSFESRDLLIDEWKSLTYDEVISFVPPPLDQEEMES

`Cc1ccc([N+](=O)[O-])cc1S(=O)(=O)N(C)/N=C/c1cnc2ccc(Br)cn12` [Compound 1] was tested, and the “dose-dependent inhibition of kinase activity” value [1] was “not”, the “dose-dependent inhibition of kinase activity” value [2] was “not” and the “proliferation of HH cells” value [3] was “sufficiently reduced proliferation”. For the same molecule, the IC50 [4] was 32.1 to 120 nM.
